Measured values: US20140080772A1, “TREATMENTS FOR MELANOMA” (The Board of Regents of the University of Texas System, priority 2012, published 2014)
Like-named read-outs stand apart in the source and are kept apart here.

Assays:
[1] = tested on: human melanocytes (hMEL) and human umbilical cord blood cells (hUCB)
Description: (§1) Melanomas and hUCB were treated with 50 μM of cardiac glycosides or DMSO for 72 h in triplicates. Viability was measured with CellTiter-Glo. […] All error bars denote SD.
(§2) In these in vitro assays, cells were treated with various doses of cardiac glycosides or DMSO for 72 hr in triplicate. Viability was measured with CellTiter-Glo.
(§3) Again, cells were treated in vitro with various doses of RO 31-8220 or DMSO for 72 hr in triplicates. Viability was measured with CellTiter-Glo.

[2] = tested on: primary melanomas (M715, M711, M741 and M405); assay: Dose response viability assay (CellTiter-Glo) on primary human melanoma cells; assay type: cell-based; settings: 72 hr, triplicate
Description: as §1, §2, §3

[3] = in vivo; cited from earlier work
[4] = tested on: M214 metastatic melanoma cells; assay type: in vivo, NSG mice; settings: digitoxin 0.5 mg/kg/day; dacarbazine 5 mg/kg every other day; alone or in combination
Description: M214 metastatic melanoma cells were implanted in s.c. tissue on right flanks of NSG mice. When tumors became palpable, mice were randomized to four different treatments. […] Control mice received equivalent volume of DMSO. […] Tumors were measured every 2-3 day with calipers. Mean^±SD is reported (*P<0.05, **P<0.005, ***P<0.0005, ****P<0.0001, ns: not significant; two-tailed Student's t test). […] The statistical significance of differences between mean values was assessed by the Student's t-test.
In these experiments, metastatic melanoma cells were injected subcutaneously in the right flanks of immunocompromised NSG mice. When tumors became palpable, mice were randomized to four different treatments. […] Control mice received equivalent volume of DMSO.

[5] = tested on: M481 metastatic melanoma cells; assay: M481 melanoma xenograft tumor growth in NSG mice; assay type: in vivo
Description: M481 metastatic melanoma cells were implanted in s.c. tissue on right flanks of NSG mice. […] Tumors were measured every 2-3 day with calipers.
(FIG. 6A) M481 efficiently metastasizing melanoma cells were implanted in s.c. tissue on right flanks of NSG mice. […] Tumors were measured every 2-3 day with calipers. Mean±SD is reported.
Subcutaneous injections of human melanoma cells were performed in each flank and the interscapular region of NOD.CB17-Prkdcscid Il2rgtm1Wjl/SzJ (NOD/SCID IL2Rγ^null, NSG) mice (Jackson Laboratories) in a final volume of 50 μl.
In these experiments metastatic melanoma cells were implanted in s.c. tissue on right flanks of NSG mice. […] Tumors were measured every 2-3 day with calipers and bioluminescence imaging was performed at day 14.
To address whether inhibition of Lyn kinase can block the ability of melanoma cells to grow in our xenograft model, they performed an in vivo drug treatment. NSG mice were injected with a 100-cell dose of a metastatic melanoma, M481, which expressed a GFP-luciferase construct. […] We tested two different doses, 4 mg/kg body mass/day and 20 mg/kg/day. Control mice were injected with 5% DMSO solution.

[6] = tested on: voltage-dependent Na+ channels; settings: cited from earlier work
S6K1 = S6K1 (Homo sapiens, UniProt P23443); settings: cited from earlier work
MAPKAP-K1b = MAPKAP-K1b (Homo sapiens, UniProt P51812); settings: cited from earlier work
[7] = tested on: JNK, glycogen synthase, MAPK, ERK2; settings: rat adipocytes and L6 myotubes; cited from earlier work
PKCα = PKCα (Homo sapiens, UniProt P17252); settings: cited from earlier work
KU812 = settings: 20 mg/kg/day; cited from earlier work
[8] = mouse, in vivo; cited from earlier work
WT Bcr-Abl [9] = target: T1, WT Bcr-Abl (Homo sapiens, UniProt P00519); settings: read-out: IC50, Bcr-Abl autophosphorylation and downstream kinase activity; K562 cells; cited from earlier work
Target sequence in this assay (P00519 with tags, fused parts or gaps): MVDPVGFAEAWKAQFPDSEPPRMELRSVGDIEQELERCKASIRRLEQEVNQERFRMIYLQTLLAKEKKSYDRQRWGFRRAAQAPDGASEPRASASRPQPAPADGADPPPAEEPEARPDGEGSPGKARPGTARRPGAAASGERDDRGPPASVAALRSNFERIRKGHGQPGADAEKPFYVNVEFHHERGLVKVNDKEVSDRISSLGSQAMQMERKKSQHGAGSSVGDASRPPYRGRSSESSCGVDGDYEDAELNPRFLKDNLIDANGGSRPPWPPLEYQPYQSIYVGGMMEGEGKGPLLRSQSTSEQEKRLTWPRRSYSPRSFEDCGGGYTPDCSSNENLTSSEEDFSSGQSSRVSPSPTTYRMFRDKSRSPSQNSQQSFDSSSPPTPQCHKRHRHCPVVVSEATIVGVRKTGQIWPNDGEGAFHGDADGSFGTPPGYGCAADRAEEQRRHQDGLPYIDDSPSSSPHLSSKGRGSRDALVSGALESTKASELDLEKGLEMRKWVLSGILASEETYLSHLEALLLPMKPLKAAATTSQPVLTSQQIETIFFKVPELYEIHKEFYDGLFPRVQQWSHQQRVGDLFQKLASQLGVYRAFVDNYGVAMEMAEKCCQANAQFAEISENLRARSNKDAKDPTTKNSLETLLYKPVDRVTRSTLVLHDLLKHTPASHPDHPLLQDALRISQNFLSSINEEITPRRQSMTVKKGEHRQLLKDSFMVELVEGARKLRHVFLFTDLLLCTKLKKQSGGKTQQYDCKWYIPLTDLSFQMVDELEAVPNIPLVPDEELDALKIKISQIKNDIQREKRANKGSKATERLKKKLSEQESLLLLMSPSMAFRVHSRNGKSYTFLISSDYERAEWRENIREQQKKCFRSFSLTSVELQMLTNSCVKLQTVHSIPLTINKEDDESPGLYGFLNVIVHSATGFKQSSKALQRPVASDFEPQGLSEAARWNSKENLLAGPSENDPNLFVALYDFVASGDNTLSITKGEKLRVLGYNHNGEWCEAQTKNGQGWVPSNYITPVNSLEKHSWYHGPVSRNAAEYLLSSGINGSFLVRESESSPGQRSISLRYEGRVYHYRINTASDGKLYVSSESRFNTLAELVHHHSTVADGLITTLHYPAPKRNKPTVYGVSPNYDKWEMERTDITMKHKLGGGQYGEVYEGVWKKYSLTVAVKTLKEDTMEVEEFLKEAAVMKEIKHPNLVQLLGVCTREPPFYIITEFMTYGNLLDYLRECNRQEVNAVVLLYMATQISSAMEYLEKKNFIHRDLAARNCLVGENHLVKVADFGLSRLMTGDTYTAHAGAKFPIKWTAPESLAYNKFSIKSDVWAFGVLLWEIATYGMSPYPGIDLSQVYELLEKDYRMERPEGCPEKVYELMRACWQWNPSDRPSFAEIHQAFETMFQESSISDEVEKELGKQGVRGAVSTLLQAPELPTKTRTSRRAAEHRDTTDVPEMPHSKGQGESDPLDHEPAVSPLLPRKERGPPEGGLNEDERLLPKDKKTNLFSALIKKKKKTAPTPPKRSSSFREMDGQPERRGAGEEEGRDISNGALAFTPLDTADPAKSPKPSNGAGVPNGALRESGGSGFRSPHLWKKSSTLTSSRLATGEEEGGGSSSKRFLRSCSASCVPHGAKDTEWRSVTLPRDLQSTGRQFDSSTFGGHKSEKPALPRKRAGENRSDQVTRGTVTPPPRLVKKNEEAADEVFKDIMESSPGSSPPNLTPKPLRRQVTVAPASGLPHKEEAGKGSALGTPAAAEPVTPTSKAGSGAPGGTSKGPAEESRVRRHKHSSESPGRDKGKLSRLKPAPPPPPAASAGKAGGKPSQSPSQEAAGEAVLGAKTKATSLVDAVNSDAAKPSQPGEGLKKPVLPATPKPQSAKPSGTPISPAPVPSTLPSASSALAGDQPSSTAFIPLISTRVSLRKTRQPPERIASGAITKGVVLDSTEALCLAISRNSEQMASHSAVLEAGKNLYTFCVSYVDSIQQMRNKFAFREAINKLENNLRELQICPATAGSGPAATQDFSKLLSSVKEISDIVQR

WT Bcr-Abl [10] = target: T1, WT Bcr-Abl; settings: read-out: IC50, Bcr-Abl autophosphorylation and downstream kinase activity; 293T cells; cited from earlier work
Target sequence in this assay (P00519 28-1130 limits assumed): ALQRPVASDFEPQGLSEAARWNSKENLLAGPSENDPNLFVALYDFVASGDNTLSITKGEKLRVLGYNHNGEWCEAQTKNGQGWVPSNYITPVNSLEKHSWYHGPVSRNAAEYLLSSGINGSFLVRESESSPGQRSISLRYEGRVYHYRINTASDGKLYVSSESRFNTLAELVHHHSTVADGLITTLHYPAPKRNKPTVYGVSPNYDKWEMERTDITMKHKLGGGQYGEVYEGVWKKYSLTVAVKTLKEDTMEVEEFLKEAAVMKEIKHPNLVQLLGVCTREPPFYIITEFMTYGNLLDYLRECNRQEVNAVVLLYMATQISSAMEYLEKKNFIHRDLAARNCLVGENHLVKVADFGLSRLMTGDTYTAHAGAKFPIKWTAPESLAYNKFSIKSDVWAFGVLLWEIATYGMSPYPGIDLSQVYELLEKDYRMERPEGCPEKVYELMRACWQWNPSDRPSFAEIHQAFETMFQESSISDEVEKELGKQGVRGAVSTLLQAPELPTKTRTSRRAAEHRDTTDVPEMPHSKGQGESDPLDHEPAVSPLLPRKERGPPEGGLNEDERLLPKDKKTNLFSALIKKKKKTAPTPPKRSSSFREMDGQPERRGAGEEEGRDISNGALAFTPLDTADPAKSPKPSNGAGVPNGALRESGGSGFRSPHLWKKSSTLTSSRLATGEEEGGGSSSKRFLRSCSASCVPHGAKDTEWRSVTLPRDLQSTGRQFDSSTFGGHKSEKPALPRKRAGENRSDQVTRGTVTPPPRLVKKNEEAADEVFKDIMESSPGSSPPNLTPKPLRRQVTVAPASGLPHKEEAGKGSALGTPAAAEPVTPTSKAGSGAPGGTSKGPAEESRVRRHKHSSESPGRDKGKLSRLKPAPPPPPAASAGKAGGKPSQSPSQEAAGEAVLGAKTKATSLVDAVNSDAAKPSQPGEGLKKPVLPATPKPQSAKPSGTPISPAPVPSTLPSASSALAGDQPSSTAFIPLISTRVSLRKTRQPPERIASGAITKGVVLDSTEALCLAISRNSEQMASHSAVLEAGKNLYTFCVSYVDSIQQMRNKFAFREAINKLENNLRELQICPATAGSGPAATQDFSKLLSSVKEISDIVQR

[11] = 72 hr, triplicate, CellTiter-Glo

Sequence of S6K1 (P23443 whole entry, species assumed): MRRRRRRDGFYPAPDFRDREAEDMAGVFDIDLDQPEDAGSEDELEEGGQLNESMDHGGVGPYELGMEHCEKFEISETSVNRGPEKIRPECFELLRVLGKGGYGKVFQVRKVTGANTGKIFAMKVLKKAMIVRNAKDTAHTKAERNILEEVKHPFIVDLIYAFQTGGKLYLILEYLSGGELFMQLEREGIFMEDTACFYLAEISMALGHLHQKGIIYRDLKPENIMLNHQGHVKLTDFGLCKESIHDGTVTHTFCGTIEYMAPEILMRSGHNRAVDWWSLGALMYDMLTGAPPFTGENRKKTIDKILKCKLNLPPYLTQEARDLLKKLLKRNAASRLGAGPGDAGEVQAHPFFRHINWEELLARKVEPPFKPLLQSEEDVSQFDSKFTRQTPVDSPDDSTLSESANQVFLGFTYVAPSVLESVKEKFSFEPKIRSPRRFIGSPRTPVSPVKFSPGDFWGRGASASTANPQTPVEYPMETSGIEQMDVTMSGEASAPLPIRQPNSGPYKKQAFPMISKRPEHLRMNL
Sequence of MAPKAP-K1b (P51812 whole entry, species assumed): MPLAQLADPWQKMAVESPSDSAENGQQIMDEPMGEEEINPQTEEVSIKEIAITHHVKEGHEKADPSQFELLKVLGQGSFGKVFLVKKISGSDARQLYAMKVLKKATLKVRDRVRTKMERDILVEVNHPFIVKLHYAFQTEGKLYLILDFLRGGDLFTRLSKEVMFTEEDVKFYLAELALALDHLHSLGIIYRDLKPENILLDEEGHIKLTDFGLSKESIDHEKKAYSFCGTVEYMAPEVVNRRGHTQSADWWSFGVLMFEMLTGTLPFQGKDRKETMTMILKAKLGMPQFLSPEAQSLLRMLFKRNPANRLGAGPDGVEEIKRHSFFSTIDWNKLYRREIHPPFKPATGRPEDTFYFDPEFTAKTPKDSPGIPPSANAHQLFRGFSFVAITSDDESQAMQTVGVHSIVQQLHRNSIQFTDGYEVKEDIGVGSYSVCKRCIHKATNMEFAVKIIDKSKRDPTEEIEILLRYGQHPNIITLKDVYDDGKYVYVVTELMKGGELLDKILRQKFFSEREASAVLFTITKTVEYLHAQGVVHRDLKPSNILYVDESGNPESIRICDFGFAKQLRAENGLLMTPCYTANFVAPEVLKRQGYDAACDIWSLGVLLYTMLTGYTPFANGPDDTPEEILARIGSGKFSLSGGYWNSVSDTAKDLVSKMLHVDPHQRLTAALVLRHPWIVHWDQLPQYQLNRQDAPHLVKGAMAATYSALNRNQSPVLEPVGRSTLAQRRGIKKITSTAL

**Q.** For C[C@H]1O[C@@H](O[C@H]2[C@@H](O)C[C@H](O[C@H]3[C@@H](O)C[C@H](O[C@H]4CC[C@@]5(C)[C@H](CC[C@@H]6[C@@H]5C[C@@H](O)[C@]5(C)[C@@H](C7=CC(=O)OC7)CC[C@]65O)C4)O[C@@H]3C)O[C@@H]2C)C[C@H](O)[C@@H]1O [digoxin], which “toxicity to normal cells (viability)” value [1] is on record?
**A.** not to normal cells

**Q.** What about the “toxicity to primary melanomas (viability)” value [2] of the same molecule?
**A.** toxic to all tested primary melanomas

**Q.** And the half-life [3]?
**A.** about 36 hours

**Q.** What about the “plasma concentration at which adverse effects are rare” value [3] of the same molecule?
**A.** < 0.8 ng/mL

**Q.** For C[C@H]1O[C@@H](O[C@H]2[C@@H](O)C[C@H](O[C@H]3[C@@H](O)C[C@H](O[C@H]4CC[C@@]5(C)[C@H](CC[C@@H]6[C@@H]5CC[C@]5(C)[C@@H](C7=CC(=O)OC7)CC[C@]65O)C4)O[C@@H]3C)O[C@@H]2C)C[C@H](O)[C@@H]1O [digitoxin], which “growth of human melanoma xenografts” value [4] is on record?
**A.** slowed the growth

**Q.** What about the tumor growth ([5]; digitoxin 0.5 mg/kg i.p. vs DMSO) of the same molecule?
**A.** inhibited the growth

**Q.** What about the “toxicity to normal cells (viability)” value [1, 11] of the same molecule?
**A.** not to normal cells

**Q.** And the “toxicity to primary melanomas (viability)” value [2]?
**A.** toxic to all tested primary melanomas

**Q.** With C[C@H]1O[C@@H](O[C@H]2[C@@H](O)C[C@H](O[C@H]3[C@@H](O)C[C@H](O[C@H]4CC[C@@]5(C)[C@H](CC[C@@H]6[C@@H]5CC[C@]5(C)[C@@H](C7=CC(=O)OC7)[C@@H](O)C[C@]65O)C4)O[C@@H]3C)O[C@@H]2C)C[C@H](O)[C@@H]1O [gitoxin] as the molecule, how does the “toxicity to normal cells (viability)” value [1, 11] read?
**A.** not to normal cells

**Q.** And the “toxicity to primary melanomas (viability)” value [2]?
**A.** toxic to all tested primary melanomas

**Q.** What does the source list for Cn1cc(C2=C(c3cn(CCCSC(=N)N)c4ccccc34)C(=O)NC2=O)c2ccccc21 [RO 31-8220]?
**A.** inhibition of voltage-dependent Na+ channels [6]: in the micromolar range; IC50 (S6K1): 38 nM; tumor growth ([5]; RO 31-8220 3 mg/kg i.p. vs DMSO): inhibited the growth; IC50 (MAPKAP-K1b): 3 nM; effect on JNK and glycogen synthase [7]: Activates; effect on MAPK and ERK2 [7]: inhibits; toxicity to normal cells (viability) [1, 11]: not to normal cells; toxicity to primary melanomas (viability) [2]: toxic to all tested primary melanomas; IC50 (PKCα): 33 nM

**Q.** With Cc1ccc(NC(=O)c2ccc(CN3CC[C@H](N(C)C)C3)c(C(F)(F)F)c2)cc1Nc1nccc(-c2cncnc2)n1 [Bafetinib, bafetinib] as the molecule, how does the adverse effects (KU812) read?
**A.** without adverse effects

**Q.** What about the “bioavailability value (BA)” value [8] of the same molecule?
**A.** 32%

**Q.** And the maximal tolerated dose [8]?
**A.** 200 mg/kg/day

**Q.** What about the IC50 (WT Bcr-Abl [9]) of the same molecule?
**A.** 11 nM

**Q.** And the IC50 (WT Bcr-Abl [10])?
**A.** 22 nM
